Structures are written as SMILES.

Experiment [1] relates to rat epidermal keratinocyte (REK) cells. Nature of the experiment: PpIX formation in rat epidermal keratinocyte cells incubated with ALA at different temperatures. Type of experiment: cell-based. The settings on record: 0.5 mM ALA, after three hours (FIG. 2). The protocol:
Two trials of rat epidermal keratinocyte (REK) cells were incubated with 0.5 mM ALA at temperatures of 21° C. and 37° C., respectively, for varying times. […] Accordingly, a temperature gradient of about 16° C. is more than sufficient to inhibit metabolism of a photosensitizing agent in epidermal tissue surrounding a targeted treatment site.
Several trials of rat epidermal keratinocyte (REK) cells were incubated with various amounts of ALA ranging from 0.1 mM to 0.5 mM, at various temperatures ranging from 15° C. to 40° C.

The subject of another experiment is human skin. Nature of the experiment: PpIX fluorescence imaging in human skin after topical DOHA followed by topical ALA. The conditions noted are these: human skin in vivo, DOHA topical 0.1%, 0.3%, 1% for 1 hour, followed by topical 5% ALA (FIG. 6). The procedure: DOHA was topically applied to human skin in concentrations of (a) 0.1%, (b) 0.3%, and (c) 1% for 1 hour, followed by topical application of 5% ALA. PpIX fluorescence was then imaged.

Experiment [2] deals with rat epidermal keratinocyte (REK) cells. Nature of the experiment: Effect of DOHA pre-incubation on ALA-induced PpIX formation in REK cells. Type of experiment: cell-based. The settings on record: washed, then 0.25 mM ALA for 3 hours (FIG. 4). The protocol:
Several trials of rat epidermal keratinocyte (REK) cells were pre-incubated with various amounts of 4-dioxoheptanoic acid (DOHA) ranging from 1^−8 M to 1^−4 M. The cells were then washed, and incubated with 0.25 mM ALA for 3 hours.

Consider `NCC(=O)CCC(=O)O` [ALA, aminolevulinic acid], for which the PpIX concentration entry in experiment [1] (21° C.) was “less than 50 pmol/10^6”; in experiment [1] (37° C.), “greater than 400 pmol/10^6”.

In the case of `CC(=O)CC(=O)CCC(=O)O` [DOHA, 4-dioxoheptanoic acid], the “PpIX formation (fluorescence)” value in the experiment with human skin is on record as “effective to chemically inhibit PpIX formation”. The PpIX formation result was “even further chemical inhibition” in experiment [2] (REK cells pre-incubated with DOHA at concentrations greater than 10^−5 M) and “significantly inhibited” in experiment [2] (REK cells pre-incubated with DOHA at concentrations greater than 10^−7 M).

(Values after patent US8207212B2, “Methods and devices for epithelial protection during photodynamic therapy” (The General Hospital Corporation, priority 2003, dated 2012).)
